Laboratory results as given in patent US12215140B2, “Method of stabilizing protein contained in specimen and solution for stabilizing protein contained in specimen” (EIKEN KAGAKU KABUSHIKI KAISHA, priority 2018, dated 2025).

Tested on: hemoglobin-haptoglobin complex
Test: Stability of hemoglobin (as hemoglobin-haptoglobin complex) in samples preserved at 37° C. in preservation solution containing 1 unit/L haptoglobin, Hb measured by latex agglutination method (Examples 1 to 7)
Parameters: species or system human
Conditions: for Hb concentration / Recovery ratio with respect to Hb concentration after 0 days: 37° C.
Summary of the method: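 Latex agglutination (anti-human hemoglobin rabbit polyclonal latex) measured Hb in samples stored at 37 °C up to 21 days; values expressed as % recovery versus day 0. Preservation solution: HEPES 40 mmol/L pH 6.8, BSA 0.1%, NaN3 0.1%, haptoglobin 1 unit/L, phenylboronic acid 0–100 mmol/L, optional sugars; ~300 µg/L Hb, 0.5% feces or none.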

[1] = Feces 1, sugar 50 mmol/L + phenylboronic acid 15 mmol/L, 0 days
[2] = Feces 1, sugar 50 mmol/L + phenylboronic acid 15 mmol/L, 7 days
[3] = Feces 1, sugar 50 mmol/L + phenylboronic acid 15 mmol/L, 14 days
[4] = Feces 1, sugar 50 mmol/L + phenylboronic acid 15 mmol/L, 21 days
[5] = Feces 1, sugar 100 mmol/L + phenylboronic acid 15 mmol/L, 0 days
[6] = Feces 1, sugar 100 mmol/L + phenylboronic acid 15 mmol/L, 7 days
[7] = Feces 1, sugar 100 mmol/L + phenylboronic acid 15 mmol/L, 14 days
[8] = Feces 1, sugar 100 mmol/L + phenylboronic acid 15 mmol/L, 21 days
[9] = Feces 1, sugar 100 mmol/L, no phenylboronic acid, 0 days
[10] = Feces 1, sugar 100 mmol/L, no phenylboronic acid, 7 days
[11] = Feces 1, sugar 100 mmol/L, no phenylboronic acid, 14 days
[12] = Feces 1, sugar 100 mmol/L, no phenylboronic acid, 21 days
[13] = Feces 2, sugar 50 mmol/L + phenylboronic acid 15 mmol/L, 0 days
[14] = Feces 2, sugar 50 mmol/L + phenylboronic acid 15 mmol/L, 7 days
[15] = Feces 2, sugar 50 mmol/L + phenylboronic acid 15 mmol/L, 14 days
[16] = Feces 2, sugar 50 mmol/L + phenylboronic acid 15 mmol/L, 21 days
[17] = Feces 2, sugar 100 mmol/L + phenylboronic acid 15 mmol/L, 0 days
[18] = Feces 2, sugar 100 mmol/L + phenylboronic acid 15 mmol/L, 14 days
[19] = Feces 2, sugar 100 mmol/L + phenylboronic acid 15 mmol/L, 21 days
[20] = Feces 2, sugar 100 mmol/L, no phenylboronic acid, 0 days
[21] = Feces 2, sugar 100 mmol/L, no phenylboronic acid, 7 days
[22] = Feces 2, sugar 100 mmol/L, no phenylboronic acid, 14 days
[23] = Feces 2, sugar 100 mmol/L, no phenylboronic acid, 21 days
[24] = Feces 3, sugar 50 mmol/L + phenylboronic acid 15 mmol/L, 0 days
[25] = Feces 3, sugar 50 mmol/L + phenylboronic acid 15 mmol/L, 7 days
[26] = Feces 3, sugar 50 mmol/L + phenylboronic acid 15 mmol/L, 14 days
[27] = Feces 3, sugar 50 mmol/L + phenylboronic acid 15 mmol/L, 21 days
[28] = Feces 3, sugar 100 mmol/L + phenylboronic acid 15 mmol/L, 0 days
[29] = Feces 3, sugar 100 mmol/L + phenylboronic acid 15 mmol/L, 7 days
[30] = Feces 3, sugar 100 mmol/L + phenylboronic acid 15 mmol/L, 14 days
[31] = Feces 3, sugar 100 mmol/L + phenylboronic acid 15 mmol/L, 21 days
[32] = Feces 3, sugar 100 mmol/L, no phenylboronic acid, 0 days
[33] = Feces 3, sugar 100 mmol/L, no phenylboronic acid, 7 days
[34] = Feces 3, sugar 100 mmol/L, no phenylboronic acid, 14 days
[35] = Feces 3, sugar 100 mmol/L, no phenylboronic acid, 21 days
[36] = No feces, sugar 50 mmol/L + phenylboronic acid 15 mmol/L, 7 days
[37] = No feces, sugar 50 mmol/L + phenylboronic acid 15 mmol/L, 14 days
[38] = No feces, sugar 100 mmol/L + phenylboronic acid 15 mmol/L, 0 days
[39] = No feces, sugar 100 mmol/L + phenylboronic acid 15 mmol/L, 7 days
[40] = No feces, sugar 100 mmol/L + phenylboronic acid 15 mmol/L, 14 days
[41] = No feces, sugar 100 mmol/L + phenylboronic acid 15 mmol/L, 21 days
[42] = No feces, sugar 100 mmol/L, no phenylboronic acid, 7 days
[43] = No feces, sugar 100 mmol/L, no phenylboronic acid, 14 days
[44] = No feces, sugar 100 mmol/L, no phenylboronic acid, 21 days

Q: Which results are given for OC[C@H]1O[C@@](CO)(O[C@H]2O[C@H](CO)[C@@H](O)[C@H](O)[C@H]2O)[C@@H](O)[C@@H]1O [Sucrose, sucrose]?
A: Hb concentration [1]: 291 µg/L; Recovery ratio with respect to Hb concentration after 0 days [1]: 100%; Hb concentration [2]: 281 µg/L; Recovery ratio with respect to Hb concentration after 0 days [2]: 97%; Hb concentration [3]: 274 µg/L; Recovery ratio with respect to Hb concentration after 0 days [3]: 94%; Hb concentration [4]: 268 µg/L; Recovery ratio with respect to Hb concentration after 0 days [4]: 92%; Hb concentration [5]: 286 µg/L; Recovery ratio with respect to Hb concentration after 0 days [5]: 100%; Hb concentration [6]: 272 µg/L; Recovery ratio with respect to Hb concentration after 0 days [6]: 95%; Hb concentration [7]: 270 µg/L; Recovery ratio with respect to Hb concentration after 0 days [7]: 94%; Hb concentration [8]: 258 µg/L; Recovery ratio with respect to Hb concentration after 0 days [8]: 90%; Hb concentration [9]: 264 µg/L; Recovery ratio with respect to Hb concentration after 0 days [9]: 100%; Hb concentration [10]: 115 µg/L; Recovery ratio with respect to Hb concentration after 0 days [10]: 44%; Hb concentration [11]: 70 µg/L; Recovery ratio with respect to Hb concentration after 0 days [11]: 27%; Hb concentration [12]: 80 µg/L; Recovery ratio with respect to Hb concentration after 0 days [12]: 30%; Hb concentration [13]: 273 µg/L; Recovery ratio with respect to Hb concentration after 0 days [13]: 100%; Hb concentration [14]: 266 µg/L; Recovery ratio with respect to Hb concentration after 0 days [14]: 97%; Hb concentration [15]: 232 µg/L; Recovery ratio with respect to Hb concentration after 0 days [15]: 85%; Hb concentration [16]: 212 µg/L; Recovery ratio with respect to Hb concentration after 0 days [16]: 78%; Hb concentration [17]: 267 µg/L; Recovery ratio with respect to Hb concentration after 0 days [17]: 100%; Recovery ratio with respect to Hb concentration after 0 days (Feces 2, sugar 100 mmol/L + phenylboronic acid 15 mmol/L, 7 days): 96%; Hb concentration [18]: 236 µg/L; Recovery ratio with respect to Hb concentration after 0 days [18]: 88%; Hb concentration [19]: 219 µg/L; Recovery ratio with respect to Hb concentration after 0 days [19]: 82%; Hb concentration [20]: 270 µg/L; Recovery ratio with respect to Hb concentration after 0 days [20]: 100%; Hb concentration [21]: 96 µg/L; Recovery ratio with respect to Hb concentration after 0 days [21]: 36%; Hb concentration [22]: 49 µg/L; Recovery ratio with respect to Hb concentration after 0 days [22]: 18%; Hb concentration [23]: 31 µg/L; Recovery ratio with respect to Hb concentration after 0 days [23]: 11%; Hb concentration [24]: 286 µg/L; Recovery ratio with respect to Hb concentration after 0 days [24]: 100%; Hb concentration [25]: 234 µg/L; Recovery ratio with respect to Hb concentration after 0 days [25]: 82%; Hb concentration [26]: 209 µg/L; Recovery ratio with respect to Hb concentration after 0 days [26]: 73%; Hb concentration [27]: 195 µg/L; Recovery ratio with respect to Hb concentration after 0 days [27]: 68%; Hb concentration [28]: 272 µg/L; Recovery ratio with respect to Hb concentration after 0 days [28]: 100%; Hb concentration [29]: 230 µg/L; Recovery ratio with respect to Hb concentration after 0 days [29]: 85%; Hb concentration [30]: 201 µg/L; Recovery ratio with respect to Hb concentration after 0 days [30]: 74%; Hb concentration [31]: 187 µg/L; Recovery ratio with respect to Hb concentration after 0 days [31]: 69%; Hb concentration [32]: 267 µg/L; Recovery ratio with respect to Hb concentration after 0 days [32]: 100%; Hb concentration [33]: 89 µg/L; Recovery ratio with respect to Hb concentration after 0 days [33]: 33%; Hb concentration [34]: 55 µg/L; Recovery ratio with respect to Hb concentration after 0 days [34]: 21%; Hb concentration [35]: 40 µg/L; Recovery ratio with respect to Hb concentration after 0 days [35]: 15%; Recovery ratio with respect to Hb concentration after 0 days (No feces, sugar 50 mmol/L + phenylboronic acid 15 mmol/L, 0 days): 100%; Hb concentration [36]: 253 µg/L; Recovery ratio with respect to Hb concentration after 0 days [36]: 93%; Hb concentration [37]: 246 µg/L; Recovery ratio with respect to Hb concentration after 0 days [37]: 91%; Recovery ratio with respect to Hb concentration after 0 days (No feces, sugar 50 mmol/L + phenylboronic acid 15 mmol/L, 21 days): 95%; Hb concentration [38]: 267 µg/L; Recovery ratio with respect to Hb concentration after 0 days [38]: 100%; Hb concentration [39]: 247 µg/L; Recovery ratio with respect to Hb concentration after 0 days [39]: 93%; Hb concentration [40]: 241 µg/L; Recovery ratio with respect to Hb concentration after 0 days [40]: 90%; Hb concentration [41]: 260 µg/L; Recovery ratio with respect to Hb concentration after 0 days [41]: 97%; Recovery ratio with respect to Hb concentration after 0 days (No feces, sugar 100 mmol/L, no phenylboronic acid, 0 days): 100%; Hb concentration [42]: 228 µg/L; Recovery ratio with respect to Hb concentration after 0 days [42]: 93%; Hb concentration [43]: 223 µg/L; Recovery ratio with respect to Hb concentration after 0 days [43]: 91%; Hb concentration [44]: 222 µg/L; Recovery ratio with respect to Hb concentration after 0 days [44]: 91%; recovery ratio of hemoglobin in the sample (sugar 100 mmol/L further added to other arylboronic acids (3-CPBA, 3-HPBA, 3-APBA) 15 mmol/L, Feces 1, Feces 2, Feces 3): further improved; recovery ratio of hemoglobin in the samples containing fecal specimens (sugar 100 mmol/L, preservation solutions containing no phenylboronic acid): does not improve; recovery ratio of hemoglobin in the sample (sugar 50 or 100 mmol/L further added to phenylboronic acid 15 mmol/L, Feces 1, Feces 2, Feces 3): further improved; recovery ratio of hemoglobin in the samples containing feces (sugar added to phenylboronic acid 15 mmol/L, Feces 1, Feces 2, Feces 3): improved depending on the added concentration
